The experiment deals with BTK enzyme (hBTK, full-length recombinant) (Homo sapiens (Human), UniProt Q06187). Briefly: Btk enzyme activity assay, Method A: IMAP-FP. In kind it is biochemical. The note with it: 5 μM ATP, 60 minute compound & enzyme incubation. An excerpt:
Inhibition of kinase activity can be measured using the Immobilized Metal Assay for Phosphochemicals (IMAP) assay. IMAP is a homogeneous fluorescence polarization (FP) assay based on affinity capture of phosphorylated peptide substrates. IMAP uses fluorescein-labeled peptide substrates that, upon phosphorylation by a protein kinase, bind to so-called IMAP nanoparticles, which are derivatized with trivalent metal complexes. Binding causes a change in the rate of the molecular motion of the peptide, and results in an increase in the FP value observed for the fluorescein label attached to the substrate peptide (Gaudet et al. A homogeneous fluorescence polarization assay adaptable for a range of protein serine/threonine and tyrosine kinases. J. Biomol. Screen (2003) 8, 164-175).
BTK enzymatic activity was determined in an IMAP-FP assay (Immobilized Metal ion Affinity-based fluorescence Polarization; Molecular Devices). […] Plates were read on Packard microplate reader after 60 minutes binding equilibration using Fluorescence Polarization protocol. Specifically, fluorescence at 535 nm is measured using emission filters oriented both parallel and perpendicular to the polarized excitation filter. This allows detection of changes in Fluorescence Polarization due to binding of the phosphorylated substrate peptide to the beads. […]

Structures are written as SMILES.

BTK enzyme (hBTK, full-length recombinant), sequence (Q06187 whole entry): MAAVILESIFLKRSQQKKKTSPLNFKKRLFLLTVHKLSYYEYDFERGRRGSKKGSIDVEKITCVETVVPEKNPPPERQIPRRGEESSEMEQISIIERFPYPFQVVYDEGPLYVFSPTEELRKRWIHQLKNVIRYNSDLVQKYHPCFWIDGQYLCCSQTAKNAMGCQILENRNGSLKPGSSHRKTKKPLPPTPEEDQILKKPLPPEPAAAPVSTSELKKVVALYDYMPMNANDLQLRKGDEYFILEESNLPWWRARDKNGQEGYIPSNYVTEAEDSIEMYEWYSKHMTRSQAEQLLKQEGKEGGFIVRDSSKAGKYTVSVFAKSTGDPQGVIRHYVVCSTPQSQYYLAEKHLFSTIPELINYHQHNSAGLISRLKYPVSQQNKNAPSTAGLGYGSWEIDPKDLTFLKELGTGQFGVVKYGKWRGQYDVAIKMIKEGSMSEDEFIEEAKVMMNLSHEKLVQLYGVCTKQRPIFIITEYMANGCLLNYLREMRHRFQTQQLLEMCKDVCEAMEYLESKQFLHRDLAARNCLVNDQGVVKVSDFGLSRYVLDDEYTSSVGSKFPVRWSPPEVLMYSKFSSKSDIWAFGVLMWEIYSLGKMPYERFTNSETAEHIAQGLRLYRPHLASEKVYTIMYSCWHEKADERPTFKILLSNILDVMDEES

One may read the IC50 as the concentration at which inhibition is half-maximal. `CCn1ncc2c1CCCC2(O)c1nc(-c2ccc(C(=O)Nc3cc(C(F)(F)F)ccn3)cc2)c2c(N)nccn12` (centres unmarked) [Example 4, 4-(8-amino-3-(1-ethyl-4-hydroxy-4,5,6,7-tetrahydro-1H-indazol-4-yl)imidazo[1,5-a]pyrazin-1-yl)-N-(4-(trifluoromethyl)pyridin-2-yl)benzamide]: the IC50 is 12 nM.

`Cn1ncc2c1CCCC2(O)c1nc(-c2ccc(C(=O)Nc3cc(C(F)(F)F)ccn3)cc2)c2c(N)nccn12` (centres unmarked) [Example 1, 4-(8-amino-3-(4-hydroxy-1-methyl-4,5,6,7-tetrahydro-1H-indazol-4-yl)imidazo[1,5-a]pyrazin-1-yl)-N-(4-(trifluoromethyl)pyridin-2-yl)benzamide]: the IC50 turned out to be 7.2 nM.

(Values after US9446130B2, “BTK inhibitors” (MERCK SHARP & DOHME CORP., priority 2013, dated 2016).)
